From publication PMC10795798 (Journal of the American Chemical Society, 2023)

Biological target: T1, CYP199A4 (Rhodopseudomonas palustris, UniProt Q2IU02)
T1 sequence (Q2IU02 1-410): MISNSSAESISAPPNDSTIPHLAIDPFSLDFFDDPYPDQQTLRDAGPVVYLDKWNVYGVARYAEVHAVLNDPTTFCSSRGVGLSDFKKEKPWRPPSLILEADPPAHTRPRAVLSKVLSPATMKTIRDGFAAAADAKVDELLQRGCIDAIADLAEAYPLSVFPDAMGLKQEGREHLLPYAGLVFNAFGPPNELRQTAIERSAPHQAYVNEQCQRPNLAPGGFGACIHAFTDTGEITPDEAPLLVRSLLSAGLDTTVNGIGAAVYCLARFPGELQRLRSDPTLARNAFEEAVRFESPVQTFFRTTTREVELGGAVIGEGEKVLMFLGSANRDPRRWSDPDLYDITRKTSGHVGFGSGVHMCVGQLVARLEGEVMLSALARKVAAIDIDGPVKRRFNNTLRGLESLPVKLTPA
Test: UV-vis spectral titration
Format: binding

Kd: 140 ± 5 µM
SMILES: CC(=O)c1ccc(C(=O)O)cc1 [4-acetylbenzoic acid]
